In general, IC50 refers to the concentration that inhibits the measured activity by half. Higher therefore signals a need for much substance.

In this test the target is T1, c-KIT kinase enzyme (Homo sapiens, UniProt P10721).
T1 construct: cKIT (6.25 μM) (catalytic domain, N-terminal GST tagged, unphosphorylated)
T1 sequence (P10721 589-937 limits assumed): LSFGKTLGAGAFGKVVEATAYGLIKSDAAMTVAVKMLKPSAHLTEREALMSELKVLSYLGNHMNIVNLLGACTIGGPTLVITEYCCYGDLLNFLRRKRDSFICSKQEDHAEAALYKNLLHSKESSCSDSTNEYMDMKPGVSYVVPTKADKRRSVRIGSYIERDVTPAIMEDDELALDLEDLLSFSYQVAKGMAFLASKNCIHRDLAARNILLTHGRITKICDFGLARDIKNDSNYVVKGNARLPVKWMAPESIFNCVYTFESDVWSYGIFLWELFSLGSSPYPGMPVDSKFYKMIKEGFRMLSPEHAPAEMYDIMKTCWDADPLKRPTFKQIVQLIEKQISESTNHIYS
In words: cKIT Homogeneous Time Resolved Fluorescent (HTRF) kinase assay. The class given is biochemical. Particulars: inhibition of the c-KIT kinase enzyme. The procedure: cKIT-Homogeneous Time Resolved Fluorescent (HTRF) Kinase Assay:
The purpose of this assay is to measure the inhibition of cKIT enzyme activity (autophosphorylation and phosphorylation of substrate) by small molecule test compounds. The cKIT HTRF assay begins with cKIT-catalyzed phosphorylation of biotinylated peptide Her-2 (N-GGMEDIYFEFMGGKKK-C) (SEQ ID 001) in the presence of ATP. The cKIT enzyme reaction is comprised of 1 μL of compound in 100% DMSO, 15 μL of 2× substrate mix (50 μM ATP and 2 μM biotinylated Her-2) and 15 μL of 2× cKIT (6.25 μM) (catalytic domain, N-terminal GST tagged, unphosphorylated) in 4 mM DTT all diluted in enzyme buffer (25 mM HEPES pH 7.5, 12.5 mM NaCl, 50 mM MgCl, 0.05% BSA). The reaction incubates for 90 min at RT. 160 Microliters of detection mixture containing 0.47 μg/mL steptavidin allophycocyanin and 29.7 pM europylatedanti-phosphotyrosine Ab (PT66, Perkin Elmer) in HTRF buffer (100 mM Hepes pH 7.5, 100 mM NaCl, 0.1% BSA, 0.05% Tween 20) is then added to stop the reaction, by diluting out the enzyme as well as to enable quantitation of phosphorylated Her-2. After 3 h at RT, the detection reaction is read in a Packard Discovery™ (model BD1000) plate reader. The wells are excited with coherent […] light and the ratio of delayed ([…] post excitation) emissions at […] (native europium fluorescence) and 665 nm (europium fluorescence transferred to allophycocyanin—an index of substrate phosphorylation) is determined. The proportion of substrate phosphorylated in the kinase reaction in the presence of compound compared with that phosphorylated in the presence of DMSO vehicle alone (HI control) is calculated using the formula:
% control (POC)=(cpd−average LO)/(average HI−average LO)*100. Data (consisting of POC and inhibitor concentration in μM) is fitted to a 4-parameter equation (y=A+((B−A)/(1+((x/C)^D))), where A is the minimum y (POC) value, B is the maximum y (POC), C is the x (compound concentration) at the point of inflection and D is the slope factor) using a Levenburg-Marquardt non-linear regression algorithm.
Background: In TR-FRET formats the signal depends on donor and acceptor labels being close together.
`Cc1ccn(-c2cccc(C(F)(F)F)c2)c(=O)c1C#Cc1cnc(N)nc1` [Example 4, 3-((2-amino-5-pyrimidinyl)ethynyl)-4-methyl-1-(3-(trifluoromethyl)phenyl)-2(1H)-pyridinone]: the half-maximal inhibitory concentration (IC50) is no more than 100 nM.
In turn, `Cc1ccn(-c2ccc3c(c2)NCC3(C)C)c(=O)c1C#Cc1cnc(N)nc1` [Example 6, 3-((2-amino-5-pyrimidinyl)ethynyl)-1-(3,3-dimethyl-2,3-dihydro-1H-indol-6-yl)-4-methyl-2(1H)-pyridinone] returned an IC50 of no more than 10 nM.
`Cc1ccc(-n2ccc(C)c(C#Cc3cnc(N)nc3)c2=O)cc1C` [Example 7, 3-((2-amino-5-pyrimidinyl)ethynyl)-1-(3,4-dimethylphenyl)-4-methyl-2(1H)-pyridinone] gave a concentration for half-maximal inhibition (IC50) of no more than 10 nM.
For the compound `CC(=O)N1CC(C)(C)c2ccc(-n3ccc(C)c(C#Cc4cnc(N)nc4)c3=O)cc21` [Example 8, 1-(1-acetyl-3,3-dimethyl-2,3-dihydro-1H-indol-6-yl)-3-((2-amino-5-pyrimidinyl)ethynyl)-4-methyl-2(1H)-pyridinone], the IC50 was no more than 20 nM.
Turning to `Cc1ccn(-c2ccc3c(c2)CCO3)c(=O)c1C#Cc1cnc(N)nc1` [Example 9, 3-((2-amino-5-pyrimidinyl)ethynyl)-1-(2,3-dihydro-1-benzofuran-5-yl)-4-methyl-2(1H)-pyridinone], the IC50 is no more than 100 nM.
As for `Cc1ccn(-c2cccc(OC(F)(F)F)c2)c(=O)c1C#Cc1cnc(N)nc1` [Example 10, 3-((2-amino-5-pyrimidinyl)ethynyl)-4-methyl-1-(3-((trifluoromethyl)oxy)phenyl)-2(1H)-pyridinone], the IC50 is no more than 100 nM.
